Tested on: NCI-H196 complex spheroids with HUVEC/MSC, growth % T/C
Experiment: Anticancer human tumor NCI-H196 cell line growth inhibition [Asc];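 further: spheroids exposed to compound for 7 days before measurement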;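 on viability, T/C: 100% = DMSO vehicle control wells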
Conditions: for IC50: curve of first compound; for viability, T/C: stronger effect = lower value
In short: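 Tumor cells were grown as multicellular spheroids with stromal HUVEC and mesenchymal stem cells and treated singly or in combination. Concentrations fell in half-log steps from the clinical Cmax, or from 10 microM where none was known.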

Cc1nc(N2CCC3(CC2)COC(C)C3N)c(CO)nc1Sc1ccnc(N)c1Cl (stereo not given) + CCN1C(C(=O)NC23CCC(C(=O)O)(CC2)CC3)C(c2cccc(Cl)c2F)C2(C(=O)Nc3cc(Cl)ccc32)C12CCCCC2
IC50 (second compound 0.03 µM): 1540 nM | IC50 (second compound 0.0949 µM): 1900 nM | IC50 (second compound 0.3 µM): 1600 nM | IC50 (second compound 0.949 µM): 1730 nM | IC50 (second compound 3 µM): 1570 nM | viability, T/C (second compound 0.03 µM, first compound 0.00949 µM): 102% | viability, T/C (second compound 0.03 µM, first compound 0.03 µM): 103% | viability, T/C (second compound 0.03 µM, first compound 0.0949 µM): 115% | viability, T/C (second compound 0.03 µM, first compound 0.3 µM): 102% | viability, T/C (second compound 0.03 µM, first compound 0.949 µM): 64.6% | viability, T/C (second compound 0.03 µM, first compound 3 µM): 30.2% | viability, T/C (second compound 0.0949 µM, first compound 0.00949 µM): 108% | viability, T/C (second compound 0.0949 µM, first compound 0.03 µM): 113% | viability, T/C (second compound 0.0949 µM, first compound 0.0949 µM): 109% | viability, T/C (second compound 0.0949 µM, first compound 0.3 µM): 95.5% | viability, T/C (second compound 0.0949 µM, first compound 0.949 µM): 74.1% | viability, T/C (second compound 0.0949 µM, first compound 3 µM): 34.5% | viability, T/C (second compound 0.3 µM, first compound 0.00949 µM): 118% | viability, T/C (second compound 0.3 µM, first compound 0.03 µM): 124% | viability, T/C (second compound 0.3 µM, first compound 0.0949 µM): 119% | viability, T/C (second compound 0.3 µM, first compound 0.3 µM): 99.8% | viability, T/C (second compound 0.3 µM, first compound 0.949 µM): 69.1% | viability, T/C (second compound 0.3 µM, first compound 3 µM): 27.9% | viability, T/C (second compound 0.949 µM, first compound 0.00949 µM): 124% | viability, T/C (second compound 0.949 µM, first compound 0.03 µM): 137% | viability, T/C (second compound 0.949 µM, first compound 0.0949 µM): 119% | viability, T/C (second compound 0.949 µM, first compound 0.3 µM): 107% | viability, T/C (second compound 0.949 µM, first compound 0.949 µM): 72.1% | viability, T/C (second compound 0.949 µM, first compound 3 µM): 29.9% | viability, T/C (second compound 3 µM, first compound 0.00949 µM): 136% | viability, T/C (second compound 3 µM, first compound 0.03 µM): 130% | viability, T/C (second compound 3 µM, first compound 0.0949 µM): 121% | viability, T/C (second compound 3 µM, first compound 0.3 µM): 106% | viability, T/C (second compound 3 µM, first compound 0.949 µM): 67.4% | viability, T/C (second compound 3 µM, first compound 3 µM): 26.5%

From PubChem BioAssay AID1963439 (Molecular Pharmacology Branch, DTP, NCI, 2024)
